Read-outs that look alike come from different tables or passages of the source.
Experiments:
hαvβ3 = target: T1, hαvβ3 (Homo sapiens, UniProt P05106+P06756); assay: Human AlphaLISA integrin-ligand blocking assay (vitronectin); type: biochemical
T1 construct: The full extracellular domains for all α and β integrin subunits; (GGGS)3 linker (C); acidic coiled-coil with cysteine (C); GG-Avitag (C); hexa-histidine tag (C); basic coiled-coil with cysteine (C); made in house; host or cells: Expi293 cells
Experimental: (§1) Integrin AlphaLISA assay. In the AlphaLISA integrin assays, we used a HEPES based buffer (25 mM HEPES pH 7.4, 137 mM NaCl, 1 mM MgCl2, 1 mM MnCl2, 2 mM CaCl2, 2.7 mM KCl, and 0.05% Tween 20). Optimal assay conditions were determined with a titration of the reagents for signal noise ratio (S/N), linear range, etc. For the respective integrins, we used the final concentrations described in Table 9.
(§2) Briefly, the testing antibody (8 μL) was added as a 4×(of Final testing concentration) solution in the HEPES buffer described previously into a 384w AlphaPlate™ (Perkin Elmer #6005350). Then the integrin and ligand were added sequentially as 8×(4 μL each). Plates were sealed and incubated at room temperature for two hours. Then 4×acceptor bead solution ([…]) was added, and the plates were resealed and incubated at room temperature (RT) for one hour. Finally, 4×([…]) donor beads solution was added in a darkened room and incubated for 45 minutes at room temperature. Plates were read on the Envision (Perkin Elmer) in AlphaScreen™ mode within three hours of donor bead addition.

hαvβ5 = target: T2, hαvβ5 (Homo sapiens, UniProt P06756+P18084); assay: as above; type: biochemical
T2 construct: The full extracellular domains for all α and β integrin subunits; (GGGS)3 linker (C); acidic coiled-coil with cysteine (C); GG-Avitag (C); hexa-histidine tag (C); basic coiled-coil with cysteine (C); made in house; host or cells: Expi293 cells
Experimental: as §1, §2

hαvβ6 = target: T3, hαvβ6 (Homo sapiens, UniProt P06756+P18564); assay: Human AlphaLISA integrin-ligand blocking assay (LAP); type: biochemical
T3 construct: The full extracellular domains for all α and β integrin subunits; (GGGS)3 linker (C); acidic coiled-coil with cysteine (C); GG-Avitag (C); hexa-histidine tag (C); basic coiled-coil with cysteine (C); made in house; host or cells: Expi293 cells
Experimental: as §1, §2

hαvβ8 = target: T4, hαvβ8 (Homo sapiens, UniProt P06756+P26012); assay: as above; type: biochemical
T4 construct: The full extracellular domains for all α and β integrin subunits; (GGGS)3 linker (C); acidic coiled-coil with cysteine (C); GG-Avitag (C); hexa-histidine tag (C); basic coiled-coil with cysteine (C); made in house; host or cells: Expi293 cells
Experimental: as §1, §2

mα5β1 = target: T5, mα5β1 (Mus musculus, UniProt P09055+P11688); assay: Mouse AlphaLISA integrin-ligand blocking assay (fibronectin); type: biochemical; details: Table 12; read-out: IC50 Mouse integrin AlphaLISA assays mα5β1
T5 construct: The full extracellular domains for all α and β integrin subunits; (GGGS)3 linker (C); acidic coiled-coil with cysteine (C); GG-Avitag (C); hexa-histidine tag (C); basic coiled-coil with cysteine (C); made in house; host or cells: Expi293 cells
Experimental: as §1, §2

mαvβ1 = target: T6, mαvβ1 (Mus musculus, UniProt P09055+P43406); assay: as above; type: biochemical; details: Table 12; read-out: IC50 Mouse integrin AlphaLISA assays mαvβ1
T6 construct: The full extracellular domains for all α and β integrin subunits; (GGGS)3 linker (C); acidic coiled-coil with cysteine (C); GG-Avitag (C); hexa-histidine tag (C); basic coiled-coil with cysteine (C); made in house; host or cells: Expi293 cells
Experimental: as §1, §2

[1] = system: bleomycin-induced lung fibrosis mouse model; assay: Mouse bleomycin lung fibrosis model; type: in vivo; details: MK-0429 200 mpk osmotic minipump, Nintedanib 60 mpk po qd
Experimental: Mouse bleomycin lungfibrosis models. Adult male C57BL/6 mice (Taconic, Rensselaer, NY) were housed in a temperature and humidity-controlled facility with a 12-hour light: 12-hour dark cycle. Animals had ad libitum access to food (Purina Rodent Chow 5053, LabDiet, St. Louis, MO) and water. All procedures utilizing experimental animals were conducted in accordance with the Guide for the Care and Use of Laboratory Animals, and experimental procedures were reviewed and approved by the Institutional Animal Care and Use Committee at MRL, Kenilworth, NJ.
For osmotic minipump implantation, trifluoroacetate (TFA) salt of MK-0429 was formulated in 50% dimethylsulfoxide (DMSO)/50% H2O at a concentration of 416 mg/mL. MK-0429 or vehicle solution were filled in minipumps (Alzet, #1007D, flow rate 0.5 μL/hour). Minipumps were placed in mice subcutaneously in a pocket on the back between the shoulder blades. A small incision was made and a subcutaneous pocket formed by blunt dissection. A sterile minipump was inserted into the subcutaneous pocket. The incision was closed with staples or non-absorbable suture or absorbable (subcuticular) suture. The minipumps were used for continuous drug delivery for two weeks.
Mice at 12˜13 weeks of age were randomized to five groups: saline, bleomycin instillation with vehicle (osmotic minipump), bleomycin instillation with MK-0429 treatment, bleomycin instillation with vehicle oral treatment, and bleomycin instillation with Nintedanib treatment. All mice were anaesthetized with isoflurane. Bleomycin was dosed by intratracheal (i.t) instillation in a volume of 50 μL, at a dose of 1 unit/kg body weight. After instillation, mice were kept in a heads-up position for 2-5 minutes before putting into cages. MK-0429 (200 mg/kg) was administered by Osmotic pump from day 5 to day 14 and Nintedanib (60 mg/kg) was administered, p.o., q.d., for 14 days. Vehicle was dosed orally at 10 am daily from the day 5 to the end of the studies and dosing volume was 10 mL/kg. For plasma PK analysis, an aliquot of 50 μL plasma was spiked into a 96-well plate, and 200 μL of acetonitrile containing internal standard were added for protein precipitation. The mixture was vortexed, centrifuged at 4000 rpm for 20 minutes. Then 50 μL of supernatant fraction was mixed with 200 μL H2O and the final solution were injected for LC-MS/MS analysis. The methods for quantitative analysis were developed on UPLC (Waters) chromatographic system equipped with an API4000 QTrap™ mass spectrometer (Applied Biosystems, Concord, Ontario, Canada). Analyst 1.5 software packages (Applied Biosystems) were used to control the LC-MS/MS system and data acquisition and processing.
Histopathology analysis. Upon completion of the study, animals were euthanized and tissues were collected for histological assessment. Lung tissues were perfused with 10% formalin, fixed for 24 hours, and then paraffin embedded. Tissue sections were stained with hematoxylin & eosin (H&E) and Masson's trichrome, subsequently evaluated under light microscope. The severity of histopathologic changes and fibrosis in the lung were graded as described previously by pathologists (Ashcroft et al., J. Clin. Pathol. 41, 467-470 (1988); Hubner et al., Biotechniques 44(507-511), 514-607 (2008)). Following deparaffinization and rehydration, each lung tissue section was processed to identify αSMA deposition by immunohistochemistry. The primary antibodies used were αSMA antibody from Sigma. The Aperio ScanScope™ XT Slide Scanner (Aperio Technologies) system was used to capture whole slide digital images with a 20×objective. Digital images were managed using Aperio Spectrum™. The positive stains were identified and quantified using a macro created from a color deconvolution algorithm (Aperio Technologies). Statistical analysis was performed by using One-way ANOVA followed by Tukey's test.

[2] = humans; cited from earlier work
[3] = system: experimental diabetic nephropathy model; details: cited from earlier work
[4] = 14 days treatment, vs BLM-vehicle

T4 sequence (P06756 31-992 limits assumed): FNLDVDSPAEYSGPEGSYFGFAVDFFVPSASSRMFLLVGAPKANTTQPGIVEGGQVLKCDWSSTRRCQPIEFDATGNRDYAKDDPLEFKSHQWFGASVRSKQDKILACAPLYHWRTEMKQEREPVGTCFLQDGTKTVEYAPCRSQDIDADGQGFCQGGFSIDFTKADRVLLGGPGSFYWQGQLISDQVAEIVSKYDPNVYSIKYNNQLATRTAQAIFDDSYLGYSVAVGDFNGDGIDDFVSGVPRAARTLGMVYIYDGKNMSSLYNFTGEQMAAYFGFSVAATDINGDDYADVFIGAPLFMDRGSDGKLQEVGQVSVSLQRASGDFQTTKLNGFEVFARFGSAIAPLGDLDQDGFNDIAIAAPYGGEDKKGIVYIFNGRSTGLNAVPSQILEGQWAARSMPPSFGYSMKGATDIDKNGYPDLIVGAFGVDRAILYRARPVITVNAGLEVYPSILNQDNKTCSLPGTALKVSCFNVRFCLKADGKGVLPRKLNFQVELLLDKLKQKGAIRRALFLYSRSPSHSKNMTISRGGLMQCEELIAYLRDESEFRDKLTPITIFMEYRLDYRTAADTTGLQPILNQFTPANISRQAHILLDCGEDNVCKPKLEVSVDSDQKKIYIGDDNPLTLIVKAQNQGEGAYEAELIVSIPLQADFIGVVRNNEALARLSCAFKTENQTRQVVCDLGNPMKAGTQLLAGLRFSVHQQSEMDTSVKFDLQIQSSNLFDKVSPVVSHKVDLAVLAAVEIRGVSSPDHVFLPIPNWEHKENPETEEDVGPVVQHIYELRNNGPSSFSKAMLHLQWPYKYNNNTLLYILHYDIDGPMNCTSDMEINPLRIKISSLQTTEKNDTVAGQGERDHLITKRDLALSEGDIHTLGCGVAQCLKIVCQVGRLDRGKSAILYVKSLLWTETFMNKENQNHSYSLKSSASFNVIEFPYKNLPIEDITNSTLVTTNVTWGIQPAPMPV
T4 sequence (P26012 43-684 limits assumed): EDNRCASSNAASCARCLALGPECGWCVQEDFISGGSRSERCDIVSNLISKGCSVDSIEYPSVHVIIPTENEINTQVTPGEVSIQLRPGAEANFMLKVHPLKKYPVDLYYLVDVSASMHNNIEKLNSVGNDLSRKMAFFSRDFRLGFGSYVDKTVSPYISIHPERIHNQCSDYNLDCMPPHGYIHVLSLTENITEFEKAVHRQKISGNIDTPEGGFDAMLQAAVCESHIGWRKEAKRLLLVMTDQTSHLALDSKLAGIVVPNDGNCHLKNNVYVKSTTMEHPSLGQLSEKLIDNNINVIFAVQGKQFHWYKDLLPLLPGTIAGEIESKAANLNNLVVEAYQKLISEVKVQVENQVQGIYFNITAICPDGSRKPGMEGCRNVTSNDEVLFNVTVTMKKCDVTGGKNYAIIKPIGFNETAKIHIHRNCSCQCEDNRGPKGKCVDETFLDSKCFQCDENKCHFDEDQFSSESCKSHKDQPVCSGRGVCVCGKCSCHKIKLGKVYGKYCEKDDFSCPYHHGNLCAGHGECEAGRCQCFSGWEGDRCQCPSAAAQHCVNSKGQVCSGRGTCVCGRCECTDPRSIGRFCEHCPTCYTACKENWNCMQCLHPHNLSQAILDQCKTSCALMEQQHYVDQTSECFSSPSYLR
T2 sequence (P06756 31-992 limits assumed): as the sequence (P06756 31-992 limits assumed) above
T2 sequence (P18084 24-719 limits assumed): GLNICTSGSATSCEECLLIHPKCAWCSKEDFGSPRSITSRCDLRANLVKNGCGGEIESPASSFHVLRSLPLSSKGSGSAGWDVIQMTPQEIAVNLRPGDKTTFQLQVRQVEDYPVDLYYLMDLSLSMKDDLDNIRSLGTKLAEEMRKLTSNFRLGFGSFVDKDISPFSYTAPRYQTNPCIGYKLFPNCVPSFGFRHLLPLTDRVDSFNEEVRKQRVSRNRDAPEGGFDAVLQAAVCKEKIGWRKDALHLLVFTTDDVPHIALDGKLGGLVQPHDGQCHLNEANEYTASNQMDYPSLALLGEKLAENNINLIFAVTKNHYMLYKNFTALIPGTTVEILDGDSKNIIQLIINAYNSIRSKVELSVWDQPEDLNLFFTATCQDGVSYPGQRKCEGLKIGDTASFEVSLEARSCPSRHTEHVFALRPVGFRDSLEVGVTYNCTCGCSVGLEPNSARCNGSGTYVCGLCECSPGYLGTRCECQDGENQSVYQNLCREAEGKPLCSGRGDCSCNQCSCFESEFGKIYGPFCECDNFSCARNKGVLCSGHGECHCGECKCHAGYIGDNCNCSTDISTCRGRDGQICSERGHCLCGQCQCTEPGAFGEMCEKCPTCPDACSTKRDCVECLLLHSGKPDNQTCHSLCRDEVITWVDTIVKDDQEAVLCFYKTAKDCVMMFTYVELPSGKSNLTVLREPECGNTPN
T3 sequence (P06756 31-992 limits assumed): as the sequence (P06756 31-992 limits assumed) above
T3 sequence (P18564 22-709 limits assumed): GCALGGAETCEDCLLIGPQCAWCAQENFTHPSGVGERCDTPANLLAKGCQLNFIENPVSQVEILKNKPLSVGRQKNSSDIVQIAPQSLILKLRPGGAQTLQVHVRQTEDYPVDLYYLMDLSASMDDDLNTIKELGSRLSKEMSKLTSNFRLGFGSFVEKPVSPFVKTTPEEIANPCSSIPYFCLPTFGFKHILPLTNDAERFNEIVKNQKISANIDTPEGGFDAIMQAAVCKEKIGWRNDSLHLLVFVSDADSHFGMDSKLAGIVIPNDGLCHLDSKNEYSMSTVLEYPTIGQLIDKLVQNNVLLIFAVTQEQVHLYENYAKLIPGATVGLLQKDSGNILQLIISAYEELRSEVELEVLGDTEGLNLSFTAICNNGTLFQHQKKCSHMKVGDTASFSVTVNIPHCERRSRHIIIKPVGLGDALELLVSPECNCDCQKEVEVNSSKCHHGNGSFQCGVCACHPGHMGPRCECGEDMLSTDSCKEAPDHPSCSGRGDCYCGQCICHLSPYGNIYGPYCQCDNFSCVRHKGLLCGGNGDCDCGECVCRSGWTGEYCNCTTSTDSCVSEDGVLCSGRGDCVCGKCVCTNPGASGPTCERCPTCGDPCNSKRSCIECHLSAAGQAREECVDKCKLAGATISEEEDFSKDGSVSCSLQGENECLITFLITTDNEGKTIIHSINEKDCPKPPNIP
T1 sequence (P06756 31-992 limits assumed): as the sequence (P06756 31-992 limits assumed) above
T1 sequence (P05106 27-718 limits assumed): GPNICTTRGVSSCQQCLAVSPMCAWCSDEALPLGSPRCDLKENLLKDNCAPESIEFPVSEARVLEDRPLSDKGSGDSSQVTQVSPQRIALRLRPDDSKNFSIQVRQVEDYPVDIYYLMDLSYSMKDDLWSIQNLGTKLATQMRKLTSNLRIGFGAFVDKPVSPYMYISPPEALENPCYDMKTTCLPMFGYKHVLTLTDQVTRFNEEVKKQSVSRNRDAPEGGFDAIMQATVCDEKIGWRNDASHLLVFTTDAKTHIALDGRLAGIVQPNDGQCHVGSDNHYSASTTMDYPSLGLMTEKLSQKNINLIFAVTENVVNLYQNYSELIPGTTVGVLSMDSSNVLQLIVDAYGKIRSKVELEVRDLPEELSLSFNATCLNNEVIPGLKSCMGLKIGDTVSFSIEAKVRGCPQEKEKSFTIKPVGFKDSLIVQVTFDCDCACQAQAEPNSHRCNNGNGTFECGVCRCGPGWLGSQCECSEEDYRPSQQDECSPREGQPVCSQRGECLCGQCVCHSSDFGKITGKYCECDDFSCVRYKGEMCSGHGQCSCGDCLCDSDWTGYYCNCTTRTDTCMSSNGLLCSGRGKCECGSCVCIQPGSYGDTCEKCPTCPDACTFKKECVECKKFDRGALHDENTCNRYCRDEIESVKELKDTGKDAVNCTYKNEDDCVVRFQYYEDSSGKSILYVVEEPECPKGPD

IC50 (hαvβ3; FIG. 3D, curve-fitted, read-out: IC50 against human αvβ3, AlphaLISA): 0.15 nM | IC50 (hαvβ3; Table 11, read-out: IC50 Human integrin AlphaLISA assays hαvβ3): 1.6 nM | IC50 (hαvβ5; FIG. 3D, curve-fitted, read-out: IC50 against human αvβ5, AlphaLISA): 9.9 nM | IC50 (hαvβ5; Table 11, read-out: IC50 Human integrin AlphaLISA assays hαvβ5): 2.9 nM | IC50 (hαvβ6; FIG. 3D, curve-fitted, read-out: IC50 against human αvβ6, AlphaLISA): 3.8 nM | IC50 (hαvβ6; Table 11, read-out: IC50 Human integrin AlphaLISA assays hαvβ6): 0.5 nM | IC50 (hαvβ8; FIG. 3D, curve-fitted, read-out: IC50 against human αvβ1 (as printed, fifth integrin listed), AlphaLISA): 58.3 nM | IC50 (hαvβ8; Table 11, read-out: IC50 Human integrin AlphaLISA assays hαvβ8): 3.1 nM | IC50 (mα5β1): 50.3 nM | IC50 (mαvβ1): 1.3 nM
SMILES: COc1ccc([C@H](CC(=O)O)N2CCN(CCCc3ccc4c(n3)NCCC4)C2=O)cn1 [MK-0429, (3S)-3-(6-methoxypyridin-3-yl)-3-[2-oxo-3-[3-(5,6,7,8-tetrahydro-1,8-naphthyridin-2-yl)propyl]imidazolidin-1-yl]propanoic acid]
body weight difference vs bleomycin group [1]: no significant body weight difference | BALF TIMP-1 content [1, 4]: did not reach statistical significance | bleomycin-induced αSMA expression (IHC) [1, 4]: significantly decreased | inflammation in the lung [1, 4]: nonstatistical significant decrease | modified Ashcroft score [1, 4]: significantly decreased | oral bioavailability [2]: good oral bioavailability | proteinuria [3]: reduces | renal fibrosis [3]: reduces
